Laboratory results as given in US11040987B2 (TenNor Therapeutics Limited, priority 2019, dated 2021).
Converted amounts (≈) assume the structure as drawn.

Key:
Type in all cases: cell-based
A.b TNP 41704 = assay: MIC against A. baumannii clinical isolates, alone and in combination with antibiotics; settings: for MIC: Acinetobacter baumannii, TNP41704, Compounds alone, read-out: MIC A.b TNP 41704
A.b TNP 41708 = assay: as above; settings: for MIC: Acinetobacter baumannii, TNP41708, read-out: MIC A.b TNP 41708
Protocol: (§1) Minimum inhibitory concentration (MIC) is determined by a broth microdilution method according to the recommendation of the Clinical and Laboratory Standards Institute (CLSI) with minor modification. […] Strains of an ESKAPE panel (E. faecium ATCC 700221, S. aureus ATCC 29213, K. pneumoniae ATCC 43816, A. baumannii ATCC 19606, P. aeruginosa ATCC 27853 and Escherichia coli ATCC 25922) were obtained originally from the American Type Culture Collection (ATCC) and used for MIC determinations of compounds. The bacteria inoculum in the test is […].

A.b TNP 41709 = assay: as above; settings: for MIC: Acinetobacter baumannii, TNP41709, Compounds alone, read-out: MIC A.b TNP 41709
[1] = system: Escherichia coli ATCC 25922; assay: MIC determination, broth microdilution, ESKAPE panel; settings: ATCC25922, iron-depleted cation-adjusted Mueller-Hinton broth, 2,2-dipyridyl 160 μM, 37° C., 18-20 hours, read-out: MIC E. coli ATCC 25922
Protocol: as §1

S. aureus ATCC 29213 = assay: as above; settings: Staphylococcus aureus, ATCC29213; iron-depleted cation-adjusted Mueller-Hinton broth, 2,2-dipyridyl 160 μM; 37° C., 18-20 hours; read-out: MIC S. aureus ATCC 29213
Protocol: as §1

E. faecium ATCC 700221 = assay: as above; settings: Enterococcus faecium, ATCC700221; iron-depleted cation-adjusted Mueller-Hinton broth, 2,2-dipyridyl 160 μM; 37° C., 18-20 hours; read-out: MIC E. faecium ATCC 700221
Protocol: as §1

K. pneumoniae ATCC 43816 = assay: as above; settings: Klebsiella pneumoniae, ATCC43816; iron-depleted cation-adjusted Mueller-Hinton broth, 2,2-dipyridyl 160 μM; 37° C., 18-20 hours; read-out: MIC K. pneumoniae ATCC 43816
Protocol: as §1

A. baumannii ATCC 19606 = assay: as above; settings: Acinetobacter baumannii, ATCC19606; iron-depleted cation-adjusted Mueller-Hinton broth, 2,2-dipyridyl 160 μM; 37° C., 18-20 hours; read-out: MIC A. baumannii ATCC 19606
Protocol: as §1

P. aeruginosa ATCC 27853 = assay: as above; settings: Pseudomonas aeruginosa, ATCC27853; iron-depleted cation-adjusted Mueller-Hinton broth, 2,2-dipyridyl 160 μM; 37° C., 18-20 hours; read-out: MIC P. aeruginosa ATCC 27853
Protocol: as §1

Row | Structure (SMILES) | MIC (A.b TNP 41704) [µg/mL] | MIC A.b TNP 41704 (A.b TNP 41704; Compounds + meropenem (1:1)) [µg/mL] | MIC A.b TNP 41704 (A.b TNP 41704; Compounds + sulbactam (1:1)) [µg/mL] | MIC (A.b TNP 41708) [µg/mL] | MIC A.b TNP 41708 (A.b TNP 41708; Compounds + meropenem (1:1)) [µg/mL] | MIC A.b TNP 41708 (A.b TNP 41708; Compounds + sulbactam (1:1)) [µg/mL] | MIC (A.b TNP 41709) [µg/mL] | MIC A.b TNP 41709 (A.b TNP 41709; Compounds + meropenem (1:1)) [µg/mL] | MIC A.b TNP 41709 (A.b TNP 41709; Compounds + sulbactam (1:1)) [µg/mL] | MIC [1] [µg/mL] | MIC (S. aureus ATCC 29213) [µg/mL] | MIC (E. faecium ATCC 700221) [µg/mL] | MIC (K. pneumoniae ATCC 43816) [µg/mL] | MIC (A. baumannii ATCC 19606) [µg/mL] | MIC (P. aeruginosa ATCC 27853) [µg/mL] | MIC A.b TNP 41704 (A.b TNP 41704; Compounds + Imipenem (1:1)) [µg/mL] | MIC A.b TNP 41708 (A.b TNP 41708; Compounds + Imipenem (1:1)) [µg/mL] | MIC A.b TNP 41709 (A.b TNP 41709; Compounds + Imipenem (1:1)) [µg/mL]
1 | C[C@]1(CNc2ccc(O)c(O)c2)[C@H](C(=O)O)N2C(=O)C[C@H]2S1(=O)=O [Example 117, (2S,3S,5R)-3-(((3,4-dihydroxyphenyl)amino)methyl)-3-methyl-7-oxo-4-thia-1-azabicyclo[3.2.0]heptane-2-carboxylic acid 4,4-dioxide] | 64 | 8 | 4 | 128 | 8 | 4 | 64 | 8 | 4 | > 128 | > 128 | > 128 | > 128 | 4 (≈ 11.2 µM) | > 128 |  |  | 
2 | C[C@]1(/C=N/NC(=O)CCNC(=O)c2ccc(O)c(O)c2)[C@H](C(=O)O)N2C(=O)C[C@H]2S1(=O)=O [Example 67, (2S,3R,5R)-3-((E)-(2-(3-(3,4-dihydroxybenzamido)propanoyl)hydrazono)methyl)-3-methyl-7-oxo-4-thia-1-azabicyclo[3.2.0]heptane-2-carboxylic acid 4,4-dioxide] | > 128 | 4 | 1 | > 128 | 2 | 8 | > 128 | 4 | 8 | > 128 | 128 (≈ 273 µM) | > 128 | 128 (≈ 273 µM) | 4 (≈ 8.54 µM) | > 128 | 4 | 4 | 8
3 | C[C@@H](O)[C@H]1C(=O)N2C(C(=O)O)=C(SCCN=CN)C[C@H]12 [Imipenem, reference compound] | 16 |  |  | 32 |  |  | 32 |  |  | 0.25 (≈ 0.835 µM) | < 0.06 | > 128 | 0.5 (≈ 1.67 µM) | 0.25 (≈ 0.835 µM) | 1 (≈ 3.34 µM) |  |  | 
4 | CN(NC(=O)c1ccc(O)c(O)c1)C(=O)OC[C@@]1(C)[C@H](C(=O)O)N2C(=O)C[C@H]2S1(=O)=O [Example 76, (2S,3R,5R)-3-(((2-(3,4-dihydroxybenzoyl)-1-methylhydrazinecarbonyl)oxy)methyl)-3-methyl-7-oxo-4-thia-1-azabicyclo[3.2.0]heptane-2-carboxylic acid 4,4-dioxide] | > 128 | 16 | 8 | > 128 | 32 | 16 | > 128 | 16 | 8 | > 128 | > 128 | > 128 | > 128 | 1 (≈ 2.19 µM) | > 128 |  |  | 
5 | C[C@]1(COC(=O)c2ccc(O)c(O)c2Cl)[C@H](C(=O)O)N2C(=O)C[C@H]2S1(=O)=O [Example 114, (2S,3R,5R)-3-(((2-chloro-3,4-dihydroxybenzoyl)oxy)methyl)-3-methyl-7-oxo-4-thia-1-azabicyclo[3.2.0]heptane-2-carboxylic acid 4,4-dioxide] | > 128 | 64 | 8 | > 128 | 64 | 32 | > 128 | 64 | 16 | 8 (≈ 19.1 µM) | 16 (≈ 38.1 µM) | > 128 | 2 (≈ 4.76 µM) | < 0.06 | > 128 |  |  | 
6 | C[C@H](NC(=O)c1ccc(O)c(O)c1Cl)C(=O)N/N=C/[C@@]1(C)[C@H](C(=O)O)N2C(=O)C[C@H]2S1(=O)=O [Example 62, (2S,3R,5R)-3-((E)-(2-((S)-2-(2-chloro-3,4-dihydroxybenzamido)propanoyl)hydrazono)methyl)-3-methyl-7-oxo-4-thia-1-azabicyclo[3.2.0]heptane-2-carboxylic acid 4,4-dioxide] | > 128 | 4 | 8 | > 128 | 4 | 8 | > 128 | 2 | 2 | > 128 | 128 (≈ 255 µM) | > 128 | > 128 | 4 (≈ 7.95 µM) | > 128 |  |  | 
7 | C[C@]1(/C=N/NC(=O)Cc2ccc(O)c(O)c2)[C@H](C(=O)O)N2C(=O)C[C@H]2S1(=O)=O [Example 20, (2S,3R,5R)-3-((E)-(2-(2-(3,4-dihydroxyphenyl)acetyl)hydrazono)methyl)-3-methyl-7-oxo-4-thia-1-azabicyclo[3.2.0]heptane-2-carboxylic acid 4,4-dioxide] | > 128 | 8 | 4 | > 128 | 8 | 8 | > 128 | 8 | 16 | > 128 | 32 (≈ 77.8 µM) | > 128 | > 128 | 64 (≈ 156 µM) | > 128 |  |  | 
8 | C[C@]1(/C=N/NC(=O)c2cccc(O)c2O)[C@H](C(=O)O)N2C(=O)C[C@H]2S1(=O)=O [Example 28, (2S,3R,5R)-3-((E)-(2-(2,3-dihydroxybenzoyl)hydrazono)methyl)-3-methyl-7-oxo-4-thia-1-azabicyclo[3.2.0]heptane-2-carboxylic acid 4,4-dioxide] | > 128 | 8 | 4 | > 128 | 8 | 8 | > 128 | 4 | 8 | > 128 | > 128 | > 128 | > 128 | > 128 | > 128 |  |  | 
9 | C[C@]1(/C=N/NC(=O)[C@H](CO)NC(=O)c2ccc(O)c(O)c2Cl)[C@H](C(=O)O)N2C(=O)C[C@H]2S1(=O)=O [Example 43, (2S,3R,5R)-3-((E)-(2-(2-(2-chloro-3,4-dihydroxybenzamido)-3-hydroxypropanoyl)hydrazono)methyl)-3-methyl-7-oxo-4-thia-1-azabicyclo[3.2.0]heptane-2-carboxylic acid 4,4-dioxide] | > 128 | 4 | 4 | > 128 | 4 | 8 | > 128 | 4 | 4 | > 128 | > 128 |  | > 128 | 8 (≈ 15.4 µM) | > 128 | 8 | 8 | 4
10 | C[C@@H](O)[C@H]1C(=O)N2C(C(=O)O)=C(S[C@@H]3CN[C@H](C(=O)N(C)C)C3)[C@H](C)[C@H]12 [Meropenem, reference compound] | 64 |  |  | 128 |  |  | 128 |  |  | < 0.06 | 0.125 (≈ 0.326 µM) | > 128 | < 0.06 | 1 (≈ 2.61 µM) | 0.5 (≈ 1.3 µM) |  |  | 
11 | CN(NC(=O)OC[C@@]1(C)[C@H](C(=O)O)N2C(=O)C[C@H]2S1(=O)=O)C(=O)c1ccc(O)c(O)c1Cl [Example 77] | > 128 | 16 | 8 | > 128 | 32 | 32 | > 128 | 16 | 16 | 64 (≈ 130 µM) | > 128 | > 128 | 16 (≈ 32.5 µM) | 0.25 (≈ 0.508 µM) | > 128 |  |  | 
